Laboratory results taken from patent US10195170B2, “Methods for inhibiting expression of ASC, expression of NLRP3, and/or formation of NLRP3 inflammasome complex using diacerein or its analogs” (TWi Biotechnology, Inc., priority 2015, dated 2019).

Experiments:
ASC = test: Immunofluorescence staining (fluorescence confocal assay) of ASC in MSU-stimulated THP-1 cells; assay type: cell-based, human; settings: PMA-primed THP-1 cells, then 100 μg/mL MSU for 6 hours
Experimental: (§1) The 20 mg of rhein powder was dissolved in 1 mL 100% dimethyl sulfoxide (DMSO), sterilized by 0.22 μm pore filter membranes, and stored at −20° C. before use. The monosodium urate (MSU) crystal (10 mg/mL) was prepared in sterilized phosphate buffered saline (PBS). The adenosine […] disodium salt (ATP) was dissolved in ddH2O and sterilized by 0.22 μm pore filter membranes. THP-1, human acute monocytic leukemia cell line (ATCC® TIB-202), were suspended in RPMI-1640 medium (GIBCO, Life Technologies, Grand Island, USA) supplemented with 10% fetal bovine serum and 1% of antibiotics (penicillin-streptomycin-amphotericin B) conditioned media. For macrophage-like differentiation, THP-1 cells were primed by 0.1 μM phorbol myristyl acetate (PMA) for 24 hours. […] For cell viability, PMA-primed THP-1 cells were detected in the presence or absence of rhein incubation for 24 hours by the Cell Counting Kit-8 (CCK-8 assay, Sigma-Aldrich, St Louis, USA). […] Fluorescence confocal assay was performed to detect the human ASC and NLRP3 expression in paraformaldehyde-fixed THP-1 cells after treatment. […] The stained areas of ASC (green) and NLRP3 (red) staining distributions were quantified and analyzed by Metamorph analyzer. […] P-value was determined by the two-tailed unpaired t-test.

NLRP3 = test: Immunofluorescence staining (fluorescence confocal assay) of NLRP3 in MSU-stimulated THP-1 cells; assay type: cell-based, human; settings: PMA-primed THP-1 cells, then 100 μg/mL MSU for 6 hours
Experimental: as §1

O=C(O)c1cc(O)c2c(c1)C(=O)c1cccc(O)c1C2=O [rhein, 9, 10-dihydro-4,5-dihydroxy-9, 10-dioxo-2-anthracene carboxylic acid]
decrease of staining of ASC sections, average intensity of area/cell (ASC; rhein 5 μg/mL overnight (lower dose), P=0.0011): about 64.0% | decrease of staining of ASC sections, average intensity of area/cell (ASC; rhein 10 μg/mL overnight (higher dose), P=0.0022): ~79.0% | inhibition of NLRP3 levels, average intensity of area/cell (NLRP3; rhein 5 μg/mL overnight (lower dose), P=0.014): about 62.5% | inhibition of NLRP3 levels, average intensity of area/cell (NLRP3; rhein 10 μg/mL overnight (higher dose), P=0.0012): ~84.1%
